# According to patent US10954252B1, “Inhibitors of human immunodeficiency virus replication” (ViiV HEALTHCARE UK (NO.5) LIMITED, priority 2017, dated 2021):
# pEC50: −log10 of the molar value.
# Columns and labels:
# [1] = test system: recombinant NL4-3 virus (nef section replaced with Renilla luciferase gene) in MT-2 cells; assay: HIV cell culture assay (antiviral activity, luciferase readout); format: cell-based; settings: MT-2 cells infected for 4-5 days with recombinant NL4-3 luciferase virus
# Description: HIV cell culture assay—MT-2 cells, 293T cells and the proviral DNA clone of NL4-3 virus were obtained from the NIH AIDS Research and Reference Reagent Program. MT-2 cells were propagated in RPMI 1640 media supplemented with 10% heat inactivated fetal bovine serum (FBS), 100 μg/ml penicillin G and up to 100 units/mL streptomycin. The 293T cells were propagated in DMEM media supplemented with 10% heat inactivated FBS, 100 μg/mL penicillin G and 100 μg/mL streptomycin. A recombinant NL4-3 proviral clone, in which a section of the nef gene was replaced with the Renilla luciferase gene, was used to make the reference virus used in these studies. The recombinant virus was prepared through transfection of the recombinant NL4-3 proviral clone into 293T cells using Transit-293 Transfection Reagent from Mirus Bio LLC (Madison, Wis.). Supernatent was harvested after 2-3 days and the amount of virus present was titered in MT-2 cells using luciferase enzyme activity as a marker by measuring luciferase enzyme activity. Luciferase was quantitated using the EnduRen Live Cell Substrate from Promega (Madison, Wis.). Antiviral activities of compounds toward the recombinant virus were quantified by measuring luciferase activity in MT-2 cells infected for 4-5 days with the recombinant virus in the presence of serial dilutions of the compound.
# The 50% effective concentration (ECs) was calculated by using the exponential form of the median effect equation where (Fa)=1/[1+(ED50/drug conc.)^m] (Johnson Va., Byington RT. Infectivity Assay. In Techniques in HIV Research. ed. Aldovini A, Walker BD. 71-76. New York: Stockton Press. 1990).
# [2] = Compound cytotoxicity, XTT-based colorimetric assay; format: cell-based; settings: human, uninfected MT2 cells
# Description: Compound cytotoxicity and the corresponding CC50 values were determined using the same protocol as described in the antiviral assay except that uninfected cells were used. Cytotoxicity was assessed on day 4 in uninfected MT2 cells by using a XTT (2,3-bis[2-Methoxy-4-nitro-5-sulfophenyl]-2H-tetrazolium-5-carboxyanilide inner salt)-based colorimetric assay (Sigma-Aldrich, St Louis, Mo.). Biological data for select compounds of the invention are contained in Table 1 and Table 1a
SMILES,"CC50 at 4 days ([2]; Table 1, day 4, XTT)","CC50 at 4 days ([2]; Table 1a, day 4, XTT)","pEC50 ([1]; Renilla, NL43, Table 1a)",also measured
"N#Cc1ccc(-c2cc3[nH]ncc3nc2[C@H](Cc2cc(F)cc(F)c2)NC(=O)Cn2nc(C(F)F)c3c2C(F)(F)[C@@H]2C[C@H]32)cc1 [Example 10.5, N—((S)-1-(6-(4-cyanophenyl)-1H-pyrazolo[4,3-b]pyridin-5-yl)-2-(3,5-difluorophenyl)ethyl)-2-((3bS,4aR)-3-(difluoromethyl)-5,5-difluoro-3b,4,4a,5-tetrahydro-1H-cyclopropa[3,4]cyclopenta[1,2-c]pyrazol-1-yl)acetamide]",9350 nM,,,"pEC50 ([1]; Renilla, NL43, Table 1): 6.52"
"COc1ccc(-n2c([C@H](Cc3cc(F)cc(F)c3)NC(=O)Cc3c[nH]c4ccc(O)cc34)nc3ncccc3c2=O)cc1 [Example 9.2, (S)—N-(2-(3,5-difluorophenyl)-1-(3-(4-methoxyphenyl)-4-oxo-3,4-dihydropyrido[2,3-d]pyrimidin-2-yl)ethyl)-2-(5-hydroxy-1H-indol-3-yl)acetamide]",> 10000 nM,,,"pEC50 ([1]; Renilla, NL43, Table 1): 8.33"
"COc1ccc2nc([C@H](Cc3cc(F)cc(F)c3)NC(=O)Cn3nc(C(F)F)c4c3C(F)(F)[C@@H]3C[C@H]43)n(-c3ccc(Cl)c4c(NS(C)(=O)=O)nn(C)c34)c(=O)c2c1 (single isomer, unassigned) [Example 173]",,> 1000 nM,,pEC50 ([1]; Table 1a): 7.49
"COc1ccc2c(=O)n(-c3ccc(Cl)c4c(NS(C)(=O)=O)nn(C)c34)c([C@H](Cc3cc(F)cc(F)c3)NC(=O)Cn3nc(C(F)F)c4c3C(F)(F)C3CC43)nc2n1 (stereo in doubt) [Example 13.2, N—((S)-1-(3-(4-chloro-1-methyl-3-(methylsulfonamido)-1H-indazol-7-yl)-7-methoxy-4-oxo-3,4-dihydropyrido[2,3-d]pyrimidin-2-yl)-2-(3,5-difluorophenyl)ethyl)-2-((3bS,4aR)-3-(difluoromethyl)-5,5-difluoro-3b,4,4a,5-tetrahydro-1H-cyclopropa[3,4]cyclopenta[1,2-c]pyrazol-1-yl)acetamide]",> 10000 nM,,,"pEC50 ([1]; Renilla, NL43, Table 1): 7.74"
"Cn1nc(NS(C)(=O)=O)c2c(Cl)ccc(-c3cc4cn[nH]c4nc3C(Cc3cc(F)cc(F)c3)NC(=O)Cn3nc(C(F)F)c4c3C(F)(F)[C@@H]3C[C@H]43)c21 (single isomer, unassigned) [Example 6.1]",> 10000 nM,,,pEC50 ([1]; Table 1): 5.99
"Cn1nc(NS(C)(=O)=O)c2c(Cl)ccc(-n3c(C(Cc4cc(F)cc(F)c4)NC(=O)Cn4nc(C(F)F)c5c4C(F)(F)[C@@H]4C[C@H]54)nc4nc(C#N)ccc4c3=O)c21 (mixture of isomers) [Example 40.1, N-(1-(3-(4-chloro-1l-methyl-3-(methylsulfonamido)-1H-indazol-7-yl)-7-cyano-4-oxo-3,4-dihydropyrido[2,3-d]pyrimidin-2-yl)-2-(3,5-difluorophenyl)ethyl)-2-((3bS,4aR)-3-(difluoromethyl)-5,5-difluoro-3b,4,4a,5-tetrahydro-1H-cyclopropa[3,4]cyclopenta[1,2-c]pyrazol-1-yl)acetamide]",,> 1000 nM,9.24,
"O=C(Cn1nc(C(F)F)c2c1C(F)(F)[C@@H]1C[C@H]21)N[C@@H](Cc1cc(F)cc(F)c1)c1nc2ccccc2c(=O)n1-c1ccc(Cl)cc1 [Example 124, N—((S)-1-(3-(4-chlorophenyl)-4-oxo-3,4-dihydroquinazolin-2-yl)-2-(3,5-difluorophenyl)ethyl)-2-((3bS,4aR)-3-(difluoromethyl)-5,5-difluoro-3b,4,4a,5-tetrahydro-1H-cyclopropa[3,4]cyclopenta[1,2-c]pyrazol-1-yl)acetamide]",,> 1000 nM,6.68,
"COc1ccc2c(=O)n(-c3ccc(Cl)c4c(NS(C)(=O)=O)nn(C)c34)c([C@H](Cc3cc(F)cc(F)c3)NC(=O)Cn3ccc(C4CC4)n3)nc2c1 (single isomer, unassigned) [Example 78]",,> 1000 nM,9.32,
CCOc1ccc2c(=O)n(-c3ccc(Cl)c4c(NS(C)(=O)=O)nn(C)c34)c(C(Cc3cc(F)cc(F)c3)NC(=O)Cn3nc(C(F)F)c4c3C(F)(F)[C@@H]3C[C@H]43)nc2n1 (mixture of isomers) [Example 60.1],,> 1000 nM,9.40,
"COc1c(F)cc2c(=O)n(-c3ccc(Cl)c4c(NS(C)(=O)=O)nn(C)c34)c([C@H](Cc3cc(F)cc(F)c3)NC(=O)Cn3ccc(C4CC4)n3)nc2c1F (single isomer, unassigned) [Example 115]",,> 1000 nM,,pEC50 ([1]; Table 1a): 7.16
"O=C(Cn1nc(C(F)F)c2c1C(F)(F)[C@@H]1C[C@H]21)N[C@@H](Cc1cc(F)cc(F)c1)c1nc2ccccc2nc1-c1ccc2c(c1)C(=O)NC2 [Example 157, 2-((3bS,4aR)-3-(difluoromethyl)-5,5-difluoro-3b,4,4a,5-tetrahydro-1H-cyclopropa[3,4]cyclopenta[1,2-c]pyrazol-1-yl)-N—((S)-2-(3,5-difluorophenyl)-1-(3-(3-oxoisoindolin-5-yl)quinoxalin-2-yl)ethyl)acetamide]",,> 10000 nM,7.98,
"N#Cc1ccc(-c2cc3[nH]ncc3nc2[C@H](Cc2cc(F)cc(F)c2)NC(=O)Cn2nc(C(F)F)c3c2C(F)(F)[C@@H]2C[C@H]32)cc1F [Example 10.4, N—((S)-1-(6-(4-cyano-3-fluorophenyl)-1H-pyrazolo[4,3-b]pyridin-5-yl)-2-(3,5-difluorophenyl)ethyl)-2-((3bS,4aR)-3-(difluoromethyl)-5,5-difluoro-3b,4,4a,5-tetrahydro-1H-cyclopropa[3,4]cyclopenta[1,2-c]pyrazol-1-yl)acetamide]",8240 nM,,,"pEC50 ([1]; Renilla, NL43, Table 1): 5.94"
"COc1cc(F)c2c(=O)n(-c3ccc(Cl)c4c(NS(C)(=O)=O)nn(C)c34)c([C@H](Cc3cc(F)cc(F)c3)NC(=O)Cn3nc(C(F)F)c4c3C(F)(F)[C@@H]3C[C@H]43)nc2c1 (single isomer, unassigned) [Example 186]",,> 1000 nM,,pEC50 ([1]; Table 1a): 10.14
"COc1cc(F)c2c(=O)n(-c3ccc(Cl)c4c(NS(C)(=O)=O)nn(C)c34)c([C@H](Cc3cc(F)cc(F)c3)NC(=O)Cn3ccc(C4CC4)n3)nc2c1 (single isomer, unassigned) [Example 189]",,> 1000 nM,,pEC50 ([1]; Table 1a): 8.19
"COc1ccc2c(=O)n(-c3ccc(Cl)c4c(NS(=O)(=O)C5CC5)nn(CC(F)F)c34)c([C@H](Cc3cc(F)cc(F)c3)NC(=O)Cn3nc(C(F)F)c4c3C(F)(F)[C@@H]3C[C@H]43)nc2n1 (mixture of isomers) [Example 56.2, N-[(1S)-1-{3-[4-chloro-3-cyclopropanesulfonamido-1-(2,2-difluoroethyl)-1H-indazol-7-yl]-7-methoxy-4-oxo-3H,4H-pyrido[2,3-d]pyrimidin-2-yl}-2-(3,5-difluorophenyl)ethyl]-2-[(2S,4R)-9-(difluoromethyl)-5,85-difluoro-7,8-diazatricyclo[4.3.0.0^2,4]nona-1(6),8-dien-7-yl]acetamide]",,> 1000 nM,10.66,
